Measurements: US9827216B2, “Nutritional support to prevent and/or mitigate bone marrow toxicity from a cancerous tumor” (Nestec S.A., priority 2008, dated 2017)

How the values were obtained:
NK cell = settings: about 750 mg per day for two weeks, cited from earlier work
immune cells = test: Nutritional intervention on immune cells in tumor burdened animals with and without chemotherapy (FIG. 11); format: in vivo; settings: during the second phase (tumor-induced toxicity)
Source text: FIG. 11 illustrates a graph of the effect of nutritional intervention on immune cells in tumor burdened animals with and without chemotherapy in accordance with an embodiment of the present disclosure.

[1] = test system: red blood cell, white blood cell and immune cell populations; test: Haematological evaluation and flow cytometric analysis, test diets with chemotherapy (Example 2); format: in vivo, mice; settings: for Global lymphocyte population: following chemotherapy, supplemented diets
Experimental: (§1) The animals were distributed into 7 different group diets. There was a control group that received the diet AIN 93 for adult rodents (maintenance). Test diets were administered in doses appropriate to the animal model: (a) Ctrl diet were supplemented with 1% (w/w) L-arginine, (b) 25% of the protein was replaced by glutamine, (c) 1% (w/w) L-citrulline, (d) 1 g/Kg body weight with active hexose correlated compound, (e) 20 mg/day of RNA nucleotides and (f) 25 mg/day of lactoferrin. […] Control animals without chemotherapeutic treatment were run in parallel for all tested diets. Body weight was assessed every two days. Blood samples were obtained at day 2, 4 and 10 after the chemo-treatment and at sacrifice (14 or 28 days). An autopsy was performed and tumor mass was assessed.

[2] = test system: MCA-OVA 1×10^6 tumor cells; test: Tumor growth evaluation, test diets with or without chemotherapy (Example 2); format: in vivo, mice
Experimental: The animals were distributed into 7 different group diets. There was a control group that received the diet AIN 93 for adult rodents (maintenance). […] Control animals without chemotherapeutic treatment were run in parallel for all tested diets. Body weight was assessed every two days. Blood samples were obtained at day 2, 4 and 10 after the chemo-treatment and at sacrifice (14 or 28 days). An autopsy was performed and tumor mass was assessed.
Methylcholanthrene (MCA) induced sarcoma cell line expressing the exogenous antigen ovalbumin (OVA) was grown in DMEM or RPMI 1640 supplemented with 2 mM L-glutamine, 10 mM HEPES, 20 μM 2-mercaptoethanol, 150 U/mL streptomycin, 200 U/mL penicillin, and 10% heat-inactivated FBS. 1×10^6 tumor cells were injected in the flank of the mice 6 days prior to the chemotherapy.
Growth of tumors was monitored every 2 d by using calipers, and tumor volume was calculated by using the formula length×width×width×0.52 mm^3.

γδ T cells = settings: acid hydrolysed, diluted in media; peripheral blood mononuclear cells; (5%-75%); cited from earlier work
[3] = test system: tongue and/or esophageal tumors; test: Carcinogen induction of tongue and/or esophageal tumors; format: in vivo, CB6F1-Tg rasH2@Jcl mice; settings: carcinogen-induced
Source text: Male CB6F1-Tg rasH2@Jcl mice (Tg) at 8 weeks of age are obtained and maintained in plastic cages. They are all allowed free access to a powdered basal diet of CRF (Charles River Formula)-1. A carcinogen, 4-nitroquinoline 1-oxide is used to induce tongue and/or esophageal tumors in this study.

[4] = Body weight of tumor-bearing mice after chemotherapy (Example 1); settings: maximal dose (10 mg/kg), of the initial body weight
Experimental: Inbred eight-week-old C57BL/6 (H-2b) mice were used in the experiments. Mice were inoculated subcutaneously (s.c.) on the left flank with 1×10^6 tumor cells, and tumor growth was monitored every 2 days by caliper measurement. 6 days after the tumor inoculation the animals were treated either with oxaliplatin or doxorubicin. Tumor growth was monitored every two days after the chemotherapeutic treatment and they were sacrificed after two weeks of tumor implantation. Some experiments were carried out until 28 days post-chemo to better assess tumor growth.
Body weight was assessed every two days until sacrifice.

[5] = Body weight of tumor-bearing mice on test diets with chemotherapy (Example 2); format: in vivo; settings: maximal dose (10 mg/kg)
Experimental: as §1

[6] = test system: red blood cell, white blood cell and immune cell populations; test: Haematological evaluation and flow cytometric analysis of tumor-bearing mice after chemotherapy (Example 1); format: in vivo; settings: after the chemotherapy

## vitamin E
NK cell; all patients studied
  NKG2D expression: small but consistent induction
NK cell; cancer patients
  NK cell cytolytic activity: significantly improved

## N=C(N)NCCC[C@H](N)C(=O)O [arginine, L-arginine]
Immune cells
  immune cell population / concentration: increase immune cell concentration
[1]; around 10 days post-chemotherapy, supplemented diet
  loss of CD3+ cells: partially modulated
[1]; diet supplemented 1% (w/w), between days 6 and 10 post-chemo, vs control diet and other treatments (FIG. 3)
  fall of erythrocytes after chemotherapy: prevented the marked fall of erythrocytes
[2]; combination with the chemotherapy treatment vs chemotherapy alone (FIG. 4)
  tumor size: further reduced the tumor size
[2]; supplemented diet compared to other groups
  progression of the implanted tumor: delayed progression

## CCNC(=O)CC[C@H](N)C(=O)O [L-theanine]
γδ T cells
  expansion of γδ T cells: 15 fold

## NC(=O)CC[C@H](N)C(=O)O [glutamine]
[1]
  Global lymphocyte population: less depressed

## O=[N+]([O-])c1cc[n+]([O-])c2ccccc12 [4-nitroquinoline 1-oxide]
[3]
  mice developing tumors in the esophagus: 60%
  mice developing tumors on the tongue: 100%

## O=C1[O][Pt]2([NH][C@@H]3CCCC[C@H]3[NH]2)[O]C1=O [oxaliplatin]
[4]
  Maximal weight loss: around 15%
[5]
  Maximal weight loss: around 15%
[6]
  white blood cell counts: leukocyte counts that were higher that the baseline counts

## NC(=O)NCCC[C@H](N)C(=O)O [citrulline, L-citrulline]
[1]
  Global lymphocyte population: less depressed
